Tests used:
[1] = system: monocotyledonous and dicotyledonous weeds; assay: Experiment on weeding effect in post-emergence stage (weeds); assay type: in vivo; conditions: 600 g/ha active ingredient plus water 450 kg/ha, 3 weeks after application, fresh weight control rate; for Amaranthus retroflexus activity level (growth control rate): fomesafen-resistant Amaranthus retroflexus
Source text: The activity level criteria for plant damage (i.e., growth control rate) are as follows: • Level 5: growth control rate is above 85%; • Level 4: growth control rate is greater than or equal to 60% and less than 85%; • Level 3: growth control rate is greater than or equal to 40% and less than 60%; • Level 2: growth control rate is greater than or equal to 20% and less than 40%; • Level 1: growth control rate is greater than or equal to […]; • Level 0: growth control rate is less than 5%.
(§1) The above growth control rates are fresh weight control rates.
(§2) (1) Experiment on weeding effect in post-emergence stage: monocotyledonous and dicotyledonous weed seeds and major crop seeds (wheat, corn, rice, soybean, cotton, oilseed rape, millet, sorghum) were placed in plastic pots filled with soil, then covered with 0.5-2 cm of soil, allowed to grow in a good greenhouse environment. After 2-3 weeks of sowing, the test plants were treated. The tested compounds of the present invention were respectively dissolved in acetone, then added with Tween 80, diluted with a certain amount of water to obtain a solution with a certain concentration, and sprayed with a spray tower onto the plants. After the application, the plants were cultured for 3 weeks in the greenhouse, and then the experimental results of the weeding were listed in Table 2.

[2] = system: major crops (wheat, corn, rice, soybean, cotton, oilseed rape, millet, sorghum); assay: Experiment on weeding effect in post-emergence stage (crops); assay type: in vivo; conditions: 600 g/ha active ingredient plus water 450 kg/ha, 3 weeks after application; for corn plant damage level (growth control rate): crop corn; for rice plant damage level (growth control rate): crop rice; for soybean plant damage level (growth control rate): crop soybean
Procedure: as §1
as §2, with “plants.” for “plants. After the application, the plants were cultured for 3 weeks in the greenhouse, and then the experimental results of the weeding were listed in Table 2.”

| Structure (SMILES) | Amaranthus retroflexus activity level (growth control rate) [1] | Echinochloa crus-galli activity level (growth control rate) [1] | Setaria viridis activity level (growth control rate) [1] | corn plant damage level (growth control rate) [2] | rice plant damage level (growth control rate) [2] | soybean plant damage level (growth control rate) [2] | Digitaria sanguinalis activity level (growth control rate) [1] |
| --- | --- | --- | --- | --- | --- | --- | --- |
| C#CCN1c2ccc(F)cc2C(=O)N(C(C)C)S1(=O)=O [Compound 51] | 5 (Level 5: growth control rate is above 85%) | 3 (Level 3: growth control rate is greater than or equal to 40% and less than 60%) | 3 (Level 3: growth control rate is greater than or equal to 40% and less than 60%) | 0 (Level 0: growth control rate is less than 5%) | 0 (Level 0: growth control rate is less than 5%) | 0 (Level 0: growth control rate is less than 5%) | – |
| COCN1c2ccc(F)cc2C(=O)N(C(C)C)S1(=O)=O [Compound 56] | 3 (Level 3: growth control rate is greater than or equal to 40% and less than 60%) | – | – | 0 (Level 0: growth control rate is less than 5%) | 0 (Level 0: growth control rate is less than 5%) | 0 (Level 0: growth control rate is less than 5%) | – |
| CC(=O)N1c2ccc(F)cc2C(=O)N(C(C)C)S1(=O)=O [Compound 62] | 5 (Level 5: growth control rate is above 85%) | 3 (Level 3: growth control rate is greater than or equal to 40% and less than 60%) | 3 (Level 3: growth control rate is greater than or equal to 40% and less than 60%) | 0 (Level 0: growth control rate is less than 5%) | 0 (Level 0: growth control rate is less than 5%) | 0 (Level 0: growth control rate is less than 5%) | – |
| CC(C)OC(=O)N1c2ccc(F)cc2C(=O)N(C(C)C)S1(=O)=O [Compound 63] | 5 (Level 5: growth control rate is above 85%) | 4 (Level 4: growth control rate is greater than or equal to 60% and less than 85%) | 3 (Level 3: growth control rate is greater than or equal to 40% and less than 60%) | 0 (Level 0: growth control rate is less than 5%) | 0 (Level 0: growth control rate is less than 5%) | 0 (Level 0: growth control rate is less than 5%) | 3 (Level 3: growth control rate is greater than or equal to 40% and less than 60%) |
| CCOC(=O)OC(C)N1c2ccc(F)cc2C(=O)N(C(C)C)S1(=O)=O (centres unmarked) [Compound 64] | 5 (Level 5: growth control rate is above 85%) | 4 (Level 4: growth control rate is greater than or equal to 60% and less than 85%) | 3 (Level 3: growth control rate is greater than or equal to 40% and less than 60%) | 0 (Level 0: growth control rate is less than 5%) | 0 (Level 0: growth control rate is less than 5%) | 0 (Level 0: growth control rate is less than 5%) | 3 (Level 3: growth control rate is greater than or equal to 40% and less than 60%) |
| CC(C)N1C(=O)c2cc(F)cnc2NS1(=O)=O [Compound 75] | 4 (Level 4: growth control rate is greater than or equal to 60% and less than 85%) | 3 (Level 3: growth control rate is greater than or equal to 40% and less than 60%) | 3 (Level 3: growth control rate is greater than or equal to 40% and less than 60%) | 1 (Level 1: growth control rate is greater than or equal to 500 and less than 200%) | 1 (Level 1: growth control rate is greater than or equal to 500 and less than 200%) | – | – |

Source: patent publication US12441695B2, “Substituted thiadiazinone dioxide and preparation method therefor, herbicidal composition, and application therefor” (Qingdao Kingagroot Chemical Compound Co., Ltd., priority 2019, dated 2025)
